In the test the target is T1, human SLC6A19 and TMEM27 (Homo sapiens, UniProt Q695T7).
T1 construct: expressed in transfected cells
T1 sequence (Q695T7 1-634): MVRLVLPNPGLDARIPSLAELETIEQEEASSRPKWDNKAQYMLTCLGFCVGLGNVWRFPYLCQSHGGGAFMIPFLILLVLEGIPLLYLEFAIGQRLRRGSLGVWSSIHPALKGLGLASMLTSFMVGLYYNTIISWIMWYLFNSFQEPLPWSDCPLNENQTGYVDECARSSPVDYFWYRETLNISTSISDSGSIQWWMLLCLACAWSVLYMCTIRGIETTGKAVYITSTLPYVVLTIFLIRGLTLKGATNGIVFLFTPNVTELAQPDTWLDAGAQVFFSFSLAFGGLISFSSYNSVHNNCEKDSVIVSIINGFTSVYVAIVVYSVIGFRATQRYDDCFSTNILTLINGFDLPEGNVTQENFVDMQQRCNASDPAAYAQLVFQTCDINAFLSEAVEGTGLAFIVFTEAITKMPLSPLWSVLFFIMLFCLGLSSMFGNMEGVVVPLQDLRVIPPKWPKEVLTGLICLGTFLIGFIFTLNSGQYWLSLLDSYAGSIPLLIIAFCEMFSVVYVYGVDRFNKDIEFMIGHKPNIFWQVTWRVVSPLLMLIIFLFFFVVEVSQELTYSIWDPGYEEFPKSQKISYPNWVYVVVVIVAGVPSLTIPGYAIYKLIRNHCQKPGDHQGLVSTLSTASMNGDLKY
T1 sequence (Q9HBJ8 15-222 partner): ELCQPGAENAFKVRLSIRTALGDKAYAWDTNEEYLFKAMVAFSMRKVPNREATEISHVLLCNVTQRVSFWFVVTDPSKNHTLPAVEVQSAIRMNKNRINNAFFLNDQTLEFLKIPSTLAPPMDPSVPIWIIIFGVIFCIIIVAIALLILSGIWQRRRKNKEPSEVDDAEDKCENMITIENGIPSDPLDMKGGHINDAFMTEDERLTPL
The test is described as follows: Radiolabelled (3H) leucine uptake in CHO cells with doxycycline-inducible expression of human SLC6A19 and TMEM27 (Example B-1). The format is cell-based. Particulars: CHO cells with doxycycline-inducible expression of human SLC6A19 and TMEM27, read-out: SLC6A19_Radioligand Uptake Assay IC50. Summed up:
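CHO cells were induced with doxycycline for 18 h at 37 °C, washed in HBSS, then exposed to compounds for 1 h: 8-point, 3-fold dilutions in duplicate, 0.5% DMSO final. Uptake measured by scintillation counting after 2 h shaking. Activity normalized with positive control as 0% and DMSO as 100%.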
Usually IC50 stands for the concentration that inhibits the measured activity by half. Turning to `Cc1cc(COc2cc3[nH]c(CNC(=O)[C@H]4CCO4)cc3cc2Cl)on1` [Compound 317, (R)-N-((5-chloro-6-((3-methylisoxazol-5-yl)methoxy)-1H-indol-2-yl)methyl)oxetane-2-carboxamide], the IC50 was 119 nM.
Turning to `CC(=O)NCc1cc2cc(Cl)c(OCc3cscn3)cc2[nH]1` [Compound 141, N-((5-chloro-6-(thiazol-4-ylmethoxy)-1H-indol-2-yl)methyl)acetamide], the IC50 was 87 nM.
With `Cc1cc(COc2cc3[nH]c(CNC(=O)CC4CCCO4)cc3cc2Cl)on1` (stereo not drawn) [Compound 310, N-((5-chloro-6-((3-methylisoxazol-5-yl)methoxy)-1H-indol-2-yl)methyl)-2-(tetrahydrofuran-2-yl)acetamide] the figure was 2520 nM.
Take `O=C(CCO)NCc1cc2cc(Cl)c(OCc3cscn3)cc2[nH]1` [Compound 309, N-((5-chloro-6-(thiazol-4-ylmethoxy)-1H-indol-2-yl)methyl)-3-hydroxypropanamide]: the IC50 stood at 1750 nM.
For `O=C(NCc1cc2cc(C3CC3)c(OCc3ccon3)cc2[nH]1)N1CCC1` [Compound 653, N-((5-cyclopropyl-6-(isoxazol-3-ylmethoxy)-1H-indol-2-yl)methyl)azetidine-1-carboxamide], the concentration for half-maximal inhibition (IC50) worked out at 387 nM.
With `Cc1cc(COc2cc3[nH]c(CNC(=O)C(C)C#N)cc3cc2Cl)on1` (racemic) [Compound 486, (S)-N-((5-chloro-6-((3-methylisoxazol-5-yl)methoxy)-1H-indol-2-yl)methyl)-2-cyanopropanamide and (R)-N-((5-chloro-6-((3-methylisoxazol-5-yl)methoxy)-1H-indol-2-yl)methyl)-2-cyanopropanamide] the figure was 387 nM.
As for `C[C@@H]1CCN1C(=O)NCc1cc2cc(Cl)c(OCc3cscn3)cc2[nH]1` [Compound 361, (R)-N-((5-chloro-6-(thiazol-4-ylmethoxy)-1H-indol-2-yl)methyl)-2-methylazetidine-1-carboxamide], the figure is 286 nM.
As for `O=C(NCc1cc2cc(C3CC3)c(OCc3ccon3)cc2[nH]1)N1CCCC1` [Compound 654, N-((5-cyclopropyl-6-(isoxazol-3-ylmethoxy)-1H-indol-2-yl)methyl)pyrrolidine-1-carboxamide], the figure is 537 nM.
Take `Cc1cc(COc2cc3[nH]c(CNC(=O)[C@H]4C[C@H](O)C4)cc3cc2Cl)on1` [Compound 252, (1R,3R)-N-((5-chloro-6-((3-methylisoxazol-5-yl)methoxy)-1H-indol-2-yl)methyl)-3-hydroxycyclobutane-1-carboxamide]: the IC50 was found to be 628 nM.
On to `O=C(NCc1cc2cc(C3CC3)c(OCc3cscn3)cc2[nH]1)N1CCCC1` [Compound 652, N-((5-cyclopropyl-6-(thiazol-4-ylmethoxy)-1H-indol-2-yl)methyl)pyrrolidine-1-carboxamide], for which the IC50 is 365 nM.
As for `CO[C@H](C)C(=O)NCc1cc2cc(Cl)c(OCc3cc(C)no3)cc2[nH]1` [Compound 314, (R)-N-((5-chloro-6-((3-methylisoxazol-5-yl)methoxy)-1H-indol-2-yl)methyl)-2-methoxypropanamide], the figure is 375 nM.
Take `CC(=O)NCc1cc2cc(Cl)c(OCC3CC3(F)F)cc2[nH]1` (stereo not drawn) [Compound 458, N-((5-chloro-6-((2,2-difluorocyclopropyl)methoxy)-1H-indol-2-yl)methyl)acetamide]: the IC50 amounted to 7670 nM.
With `O=C(NCc1cc2cc(Cl)c(OCc3ccon3)cc2[nH]1)N1CCC1` [Compound 79, N-((5-chloro-6-(isoxazol-3-ylmethoxy)-1H-indol-2-yl)methyl)azetidine-1-carboxamide] the figure was 272 nM; with `Cc1cc(COc2cc3[nH]c(CNC(=O)C[C@@H]4CCOC4)cc3cc2Cl)on1` [Compound 289, (S)-N-((5-chloro-6-((3-methylisoxazol-5-yl)methoxy)-1H-indol-2-yl)methyl)-2-(tetrahydrofuran-3-yl)acetamide], 2020 nM.
Regarding `O=C(NCc1cc2cc(Cl)c(OCc3cscn3)cc2[nH]1)[C@@H]1CCOC1` [Compound 316, (R)-N-((5-chloro-6-(thiazol-4-ylmethoxy)-1H-indol-2-yl)methyl)tetrahydrofuran-3-carboxamide], the IC50 is 284 nM.
As for `O=C(NCc1cc2cc(F)c(OCc3cscn3)cc2[nH]1)C(F)F` [Compound 567, 2,2-difluoro-N-((5-fluoro-6-(thiazol-4-ylmethoxy)-1H-indol-2-yl)methyl)acetamide], the figure is 182 nM.
With `CNC(=O)NCc1cc2cc(F)c(OCc3cc(C)no3)cc2[nH]1` [Compound 210, 1-((5-fluoro-6-((3-methylisoxazol-5-yl)methoxy)-1H-indol-2-yl)methyl)-3-methylurea] the figure was 293 nM; with `CC(=O)NCc1cc2cc(Cl)c(OCc3cc(C)on3)cc2[nH]1` [Compound 142, N-((5-chloro-6-((5-methylisoxazol-3-yl)methoxy)-1H-indol-2-yl)methyl)acetamide], 69 nM.
As to `O=C(NCc1cc2cc(Cl)c(OCc3ccon3)cc2[nH]1)C1CCC1` [Compound 488, N-((5-chloro-6-(isoxazol-3-ylmethoxy)-1H-indol-2-yl)methyl)cyclobutanecarboxamide], the 50% inhibitory concentration (IC50) worked out at 161 nM.
As for `O=C(NCc1cc2cc(Cl)c(OCc3cscn3)cc2[nH]1)C1CCOC1` (stereo not drawn) [Compound 267, N-((5-chloro-6-(thiazol-4-ylmethoxy)-1H-indol-2-yl)methyl)tetrahydrofuran-3-carboxamide], the figure is 720 nM.
For `Cc1cc(COc2cc3[nH]c(CNC(=O)[C@H]4C[C@@H]4F)cc3cc2Cl)on1` [Compound 538, (1R,2S)-N-((5-chloro-6-((3-methylisoxazol-5-yl)methoxy)-1H-indol-2-yl)methyl)-2-fluorocyclopropane-1-carboxamide], the IC50 was found to be 59.4 nM.
As for `O=C(NCc1cc2cc(Cl)c(OCc3cscn3)cc2[nH]1)[C@H]1C[C@H]1F` [Compound 541, (1R,2R)-N-((5-chloro-6-(thiazol-4-ylmethoxy)-1H-indol-2-yl)methyl)-2-fluorocyclopropane-1-carboxamide], the figure is 141 nM; as for `Cc1cc(COc2cc3[nH]c(CNC(=O)N4CCC4C(F)F)cc3cc2Cl)on1` (racemic) [Compound 581, (S)-N-((5-chloro-6-((3-methylisoxazol-5-yl)methoxy)-1H-indol-2-yl)methyl)-2-(difluoromethyl)azetidine-1-carboxamide and (R)-N-((5-chloro-6-((3-methylisoxazol-5-yl)methoxy)-1H-indol-2-yl)methyl)-2-(difluoromethyl)azetidine-1-carboxamide], 657 nM; as for `[2H]C([2H])([2H])c1cc(COc2cc3[nH]c(CNC(=O)C4(C)CC4)cc3cc2F)no1` [Compound 664, N-((5-fluoro-6-((5-(methyl-d3)isoxazol-3-yl)methoxy)-1H-indol-2-yl)methyl)-1-methylcyclopropane-1-carboxamide], 187 nM.
As for `O=C(NCc1cc2cc(Cl)c(OCc3cscn3)cc2[nH]1)N1CC(CO)C1` [Compound 368, N-((5-chloro-6-(thiazol-4-ylmethoxy)-1H-indol-2-yl)methyl)-3-(hydroxymethyl)azetidine-1-carboxamide], the figure is above 5480 nM; as for `CC(=O)NCc1cc2cc(F)c(OCc3ccon3)cc2[nH]1` [Compound 207, N-((5-fluoro-6-(isoxazol-3-ylmethoxy)-1H-indol-2-yl)methyl)acetamide], 926 nM.
As for `Cc1cc(COc2cc3[nH]c(CNC(=O)COC(F)F)cc3cc2Cl)on1` [Compound 294, N-((5-chloro-6-((3-methylisoxazol-5-yl)methoxy)-1H-indol-2-yl)methyl)-2-(difluoromethoxy)acetamide], the figure is 135 nM; as for `CC(=O)NCc1cc2cc(Cl)c(OCc3cocn3)cc2[nH]1` [Compound 206, N-((5-chloro-6-(oxazol-4-ylmethoxy)-1H-indol-2-yl)methyl)acetamide], 217 nM; as for `CC1(C(=O)NCc2cc3cc(Cl)c(OCc4cscn4)cc3[nH]2)CCC1` [Compound 506, N-((5-chloro-6-(thiazol-4-ylmethoxy)-1H-indol-2-yl)methyl)-1-methylcyclobutane-1-carboxamide], 331 nM.
As to `Cc1cc(COc2cc3[nH]c(CNC(=O)c4ccon4)cc3cc2Cl)on1` [Compound 450, N-((5-chloro-6-((3-methylisoxazol-5-yl)methoxy)-1H-indol-2-yl)methyl)isoxazole-3-carboxamide], the IC50 amounted to 95.1 nM.
